Measured values from patent US20060106028A1, “Polycyclic aromatics and derivatives thereof and processes for their preparation” (priority 2004, published 2006).
In brackets after ≈: the same amount, converted by molar mass. Like-named read-outs stand apart in the source and are kept apart here.

Key:
Format in all cases: cell-based
[1] = system: Saccharomyces cerevisiae FHCRC-50514; experiment: Antifungal activity, MIC (NCCLS M27-A); settings: FHCRC50514, after 24 hours, YPD medium
Experimental: (§1) Testing of antifungal activity was performed according to NCCLS method (NCCLS. Reference Method for Broth Dilution Antifungal Susceptibility Testing of Yeasts; Approved Standard. NCCLS document M27-A (ISBN 1-56238-328-0). NCCLS, 940 West Valley Road, Suite 1400, Wayne, Pa. 19087-1898 USA; www.nccls.org.). Compound 1 was prepared as 100× stock solutions in DMSO, with concentrations ranging from 3.2 mg/mL to 0.003 mg/mL (a two-fold dilution series over 11 points). An aliquot of each 100× stock solution was diluted 50-fold in test medium described below to give a set of eleven (11) 2× solutions. 50 μL of each of the eleven 2× solutions was aliquoted into the corresponding well of a 12-well row, with the final well reserved for medium alone control. Inoculum density for each indicator strain was adjusted to OD600=0.1 in 5 mL 0.85% saline, then further diluted 1/1000 in YPD medium. 50 μL of the final dilution (in test medium) of each indicator strain was added to each well of a 12-well row. This brings the final dilution of the test article or control compound in solution to 1×. The final inoculum was approximately 5×10^4 CFU/ml.
(§2) Bacterial strains Streptococcus pneumoniae LSPQ 3412 and LSPQ 3349 were obtained from the “Laboratoire de Sante Publique du Quebec”. Saccharomyces cerevisiae FHCRC-50014 and FHCRC-50514 were obtained from the “Fred Hutchison Cancer Research Center”.

[2] = system: Saccharomyces cerevisiae FHCRC-50014; experiment: Antifungal activity, MIC (NCCLS M27-A); settings: FHCRC50014, after 24 hours, YPD medium
Experimental: as §1, §2

[3] = system: PC-3 (prostate adenocarcinoma); experiment: In vitro tumor growth inhibition (GI50, propidium iodide); settings: 96 hrs
[4] = system: Enterococcus faecalis VRE-1 (ATCC™ 29212); experiment: Antibacterial activity, MIC (NCCLS M7-A5); settings: BHI+ medium
[5] = system: Staphylococcus aureus MRS3 (ATCC™ 700699); experiment: Antibacterial activity, MIC (NCCLS M7-A5); settings: MH medium, 35° C., 16 to 20 hours
[6] = system: SF268 (CNS); experiment: In vitro tumor growth inhibition (GI50, propidium iodide); settings: Homo sapiens; SF-268; 96 hrs
[7] = system: HT-29 (colorectal carcinoma); experiment: as above; settings: Homo sapiens, 96 hrs
[8] = system: Streptococcus pneumoniae PenR (LSPQ 3349); experiment: Antibacterial activity, MIC (NCCLS M7-A5); settings: MH medium +2% lysed horse blood
[9] = system: MDA-MB-231 (mammary gland adenocarcinoma); experiment: In vitro tumor growth inhibition (GI50, propidium iodide); settings: Homo sapiens, 96 hrs
[10] = system: Clostridium difficile (ATCC™ 9689); experiment: Antibacterial activity, MIC (NCCLS M11-A5, anaerobic); settings: Clostridioides difficile
Experimental: Antibacterial activity of Compounds 1 and 2 (Table 7) was measured by determining the minimal inhibitory concentration (MIC) necessary to obtain a complete inhibition of bacteria growth in seven indicator strains, namely Staphylococcus aureus (ATCC™ 6538P), Staphylococcus aureus MRS3 (ATCC™ 700699), Enterococcus faecalis VRE-1 (ATCC™ 29212), Enterococcus faecalis VRE-2 (ATCC™ 51299), Escherichia coli (ATCC™ 25922), Streptococcus pneumoniae (LSPQ 3412) and Streptococcus pneumoniae PenR (LSPQ 3349). Indicator strains preparation and MIC determination were performed according to the National Committee for Clinical Laboratory Standards (NCCLS) guideline M7-A5 Methods for Dilution Antimicrobial Susceptibility Tests for Bacteria That Grow Aerobically; Approved Standard-Fifth Edition. (NCCLS document M7-A5, ISBN 1-56238-394-9; NCCLS, 940 West Valley Road, Suite 1400, Wayne, Pa. 19087-1898 USA), the content of which is incorporated herein by reference. MIC determination against C. difficile was performed according to National Committee for Clinical Laboratory Standards (NCCLS) guideline M11-A5 Methods for Antimicrobial Susceptibility Testing of Anaerobic Bacteria.
Compounds 1 and 2 were prepared as 100× stock solutions in DMSO, with concentrations ranging from 3.2 mg/mL to 0.003 mg/mL (a two-fold dilution series over 11 points). An aliquot of each 100× stock solution was diluted 50-fold in test medium described below to give a set of eleven (11) 2× solutions. 50 μL of each of the eleven 2× solutions was aliquoted into the corresponding well of a 12-well row, with the final well reserved for medium alone control.
Vancomycin (Sigma™), used as positive control compound, was prepared as 2× stock solutions in Mueller-Hinton test medium ranging from 64 μg/mL to 0.06 μg/ml (a two-fold dilution series over 11 points). An aliquot of 50 μL corresponding to each concentration (at 2×) was then transferred to 96-well microplates to obtain a series of eleven two-fold dilutions.
An isolated colony of each of the indicator strains was used to inoculate tubes containing 2 mL of test medium. […]

[11] = system: Enterococcus faecalis VRE-2 (ATCC™ 51299); experiment: Antibacterial activity, MIC (NCCLS M7-A5); settings: BHI+ medium, 35° C., 16 to 20 hours
[12] = system: Streptococcus pneumoniae (LSPQ 3412); experiment: Antibacterial activity, MIC (NCCLS M7-A5); settings: MH medium +2% lysed horse blood
[13] = system: Escherichia coli (ATCC™ 25922); experiment: Antibacterial activity (NCCLS M7-A5); settings: MH medium
[14] = system: Staphylococcus aureus (ATCC™ 6538P); experiment: Antibacterial activity, MIC (NCCLS M7-A5); settings: MH medium, 35° C., 16 to 20 hours

SMILES	MIC [1] [mg/L]	MIC [2] [mg/L]	GI50 [3] [µM]	MIC ([4]; 35° C., 16 to 20 hours) [mg/L]	MIC [5] [mg/L]	GI50 [6] [µM]	GI50 [7] [µM]	MIC [8] [mg/L]	GI50 [9] [µM]	MIC ([10]; Brucella medium with hemin, vitamin K1 and 5% lysed horse blood, read-out: MIC) [mg/L]	MIC [11] [mg/L]	MIC [12] [mg/L]	Antibacterial activity [13]	MIC [14] [mg/L]	MIC ([4]; when tested as control with Compound 2) [mg/L]	MIC [10] [mg/L]
OC(Cn1cncn1)(Cn1cncn1)c1ccc(F)cc1F [Fluconazole, reference compound]	0.25 to 0.5 (≈ 0.816 to 1.63 µM)	8 (≈ 26.1 µM)														
CCC(C)c1cc2c(=O)c3ccc4c(OC)c5c(=O)c6c(O)ccc(O)c6c(=O)c5c(O)c4c3c(=O)c2c(=O)n1CC(=O)N1CC(C(=O)OC)NC(=O)C1C (stereo not shown) [Compound 2]			4.61	1 (≈ 1.33 µM)	0.125 (≈ 0.166 µM)	2.63	16.1	1 (≈ 1.33 µM)	4.04	2 (≈ 2.66 µM)	1 (≈ 1.33 µM)	1 (≈ 1.33 µM)	inactive	0.0625 (≈ 0.0831 µM)		
CN[C@H](CC(C)C)C(=O)N[C@H]1C(=O)N[C@@H](CC(N)=O)C(=O)N[C@H]2C(=O)N[C@H]3C(=O)N[C@H](C(=O)N[C@H](C(=O)O)c4cc(O)cc(O)c4-c4cc3ccc4O)[C@H](O)c3ccc(c(Cl)c3)Oc3cc2cc(c3O[C@@H]2O[C@H](CO)[C@@H](O)[C@H](O)[C@H]2O[C@H]2C[C@](C)(N)[C@H](O)[C@H](C)O2)Oc2ccc(cc2Cl)[C@H]1O [Vancomycin, reference compound]				8 (≈ 5.52 µM)	4 (≈ 2.76 µM)			0.5 (≈ 0.345 µM)			32 (≈ 22.1 µM)	0.5 (≈ 0.345 µM)		1 (≈ 0.69 µM)	4 (≈ 2.76 µM)	0.5 (≈ 0.345 µM)
